Patent US20160333419A1, “GENE SIGNATURES ASSOCIATED WITH SENSITIVITY TO MDM2 INHIBITORS” (DAIICHI SANKYO COMPANY, LIMITED, priority 2014, published 2016)

Columns and labels:
Assay in all cases: OncoPanel cytotoxicity assay
Type in all cases: cell-based
5637 = conditions: Homo sapiens, 72 hour incubation
In short: (§1)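 Cells grown in RPMI 1640 with 10% FBS (or a special medium) at 37° C, 5% CO2 were treated 24 hours after seeding for 72 hours with 10 concentrations (3.16-fold dilutions, 0.1% DMSO final). Nuclei were dye-stained and imaged; IC50 was fit from percent of control relative cell count.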

639-V = conditions: Homo sapiens, 72 hour incubation
In short: as §1

647-V = conditions: Homo sapiens, 72 hour incubation
In short: as §1

786-O = conditions: Homo sapiens, 786-0, 72 hour incubation
In short: as §1

A549 = conditions: Homo sapiens, 72 hour incubation
In short: as §1

AGS = conditions: Homo sapiens, 72 hour incubation
In short: as §1

BHT-101 = conditions: Homo sapiens, 72 hour incubation
In short: as §1

C-4 I = conditions: Homo sapiens, 72 hour incubation
In short: as §1

CCRFCEM = conditions: Homo sapiens, CCRF-CEM, 72 hour incubation
In short: as §1

CEM-C1 = conditions: Homo sapiens, 72 hour incubation
In short: as §1

Capan-2 = conditions: Homo sapiens, 72 hour incubation
In short: as §1

ChaGoK1 = conditions: Homo sapiens, ChaGo-K-1, 72 hour incubation
In short: as §1

Daoy = conditions: Homo sapiens, 72 hour incubation
In short: as §1

EFM-19 = conditions: Homo sapiens, 72 hour incubation
In short: as §1

FaDu = conditions: Homo sapiens, 72 hour incubation
In short: as §1

HLF = conditions: Homo sapiens, 72 hour incubation
In short: as §1

KPL-1 = conditions: Homo sapiens, 72 hour incubation
In short: as §1

MCF7 = conditions: Homo sapiens, 72 hour incubation
In short: as §1

MDA MB 453 = conditions: Homo sapiens, 72 hour incubation
In short: as §1

MHH-PREB-1 = conditions: Homo sapiens, 72 hour incubation
In short: as §1

MOLT-3 = conditions: Homo sapiens, 72 hour incubation
In short: as §1

Mia PaCa-2 = conditions: Homo sapiens, 72 hour incubation
In short: as §1

NCIH441 = conditions: Homo sapiens, NCI-H441, 72 hour incubation
In short: as §1

NCIH446 = conditions: Homo sapiens, NCI-H446, 72 hour incubation
In short: as §1

RKO-AS45-1 = conditions: Homo sapiens, RKOAS451, 72 hour incubation
In short: as §1

RL95-2 = conditions: Homo sapiens, 72 hour incubation
In short: as §1

RPMI-7951 = conditions: Homo sapiens, 72 hour incubation
In short: as §1

SCC-25 = conditions: Homo sapiens, 72 hour incubation
In short: as §1

SCC-4 = conditions: Homo sapiens, 72 hour incubation
In short: as §1

SCaBER = conditions: Homo sapiens, 72 hour incubation
In short: as §1

SK-NEP-1 = conditions: Homo sapiens, 72 hour incubation
In short: as §1

SKO-007 = conditions: Homo sapiens, 72 hour incubation
In short: as §1

SNU-423 = conditions: Homo sapiens, 72 hour incubation
In short: as §1

SNU-5 = conditions: Homo sapiens, 72 hour incubation
In short: as §1

ST486 = conditions: Homo sapiens, 72 hour incubation
In short: as §1

SW1116 = conditions: Homo sapiens, SW 1116, 72 hour incubation
In short: as §1

SW1783 = conditions: Homo sapiens, 72 hour incubation
In short: as §1

UM-UC-3 = conditions: Homo sapiens, UMUC3, 72 hour incubation
In short: as §1

SMILES	IC50 5637 [µM]	IC50 (639-V) [µM]	IC50 (647-V) [µM]	IC50 (786-O) [µM]	IC50 (A549) [µM]	IC50 (AGS) [µM]	IC50 (BHT-101) [µM]	IC50 (C-4 I) [µM]	IC50 (CCRFCEM) [µM]	IC50 (CEM-C1) [µM]	IC50 (Capan-2) [µM]	IC50 (ChaGoK1) [µM]	IC50 (Daoy) [µM]	IC50 (EFM-19) [µM]	IC50 (FaDu) [µM]	IC50 (HLF) [µM]	IC50 (KPL-1) [µM]	IC50 (MCF7) [µM]	IC50 (MDA MB 453) [µM]	IC50 (MHH-PREB-1) [µM]	also measured
CC[C@@H]1CNC2(CC2)CN1C(=O)[C@@H]1C[C@@H](F)CN1C(=O)C1=C(C(C)C)N2C(=N[C@@](C)(c3ccc(Cl)nc3)[C@H]2c2ccc(Cl)c(F)c2)S1 [Compound A, [(5R,6S)-5-(4-Chloro-3-fluorophenyl)-6-(6-chloropyridin-3-yl)-6-methyl-3-(propan-2-yl)-5,6-dihydroimidazo[2,1-b][1,3]thiazol-2-yl][(2S,4R)-2-{[(6R)-6-ethyl-4,7-diazaspiro[2.5]oct-7-yl]carbonyl}-4-fluoropyrrolidin-1-yl]methanone]	> 40	> 40	> 40	37.3	0.401	0.139	> 40	> 40	> 40	33.6	> 40	> 40	> 40	> 40	> 40	> 40	0.455	0.661	32.8	> 40	IC50 (MOLT-3): 0.605 µM; IC50 (Mia PaCa-2): > 40 µM; IC50 (NCIH441): > 40 µM; IC50 (NCIH446): > 40 µM; IC50 (RKO-AS45-1): 0.471 µM; IC50 (RL95-2): 13.8 µM; IC50 (RPMI-7951): > 40 µM; IC50 (SCC-25): > 40 µM; IC50 (SCC-4): > 40 µM; IC50 (SCaBER): > 40 µM; IC50 (SK-NEP-1): > 40 µM; IC50 (SKO-007): > 40 µM; IC50 (SNU-423): > 40 µM; IC50 (SNU-5): > 40 µM; IC50 (ST486): 24.3 µM; IC50 (SW1116): > 40 µM; IC50 (SW1783): > 40 µM; IC50 (UM-UC-3): > 40 µM
CC1(C)CCC2(CC1)N[C@@H](C(=O)N[C@@H]1CC[C@@H](C(N)=O)OC1)[C@H](c1ccnc(Cl)c1F)[C@]21C(=O)Nc2cc(Cl)ccc21 [Compound B, (3′R,4′S,5′R)—N-[(3R,6S)-6-carbamoyltetrahydro-2H-pyran-3-yl]-6″-chloro-4′-(2-chloro-3-fluoropyridin-4-yl)-4,4-dimethyl-2″-oxo-1″,2″-dihydrodispiro[cyclohexane-1,2′-pyrrolidine-3′,3″-indole]-5′-carboxamide]	> 10	6.39	> 10	0.342	0.0769	0.0116	> 10	7.21	> 10	9.37	> 10	> 10	> 10	> 10	> 10	> 10	0.031	0.0833	9.29	8.3	IC50 (MOLT-3): 0.0332 µM; IC50 (Mia PaCa-2): 7.22 µM; IC50 (NCIH441): > 10 µM; IC50 (NCIH446): > 10 µM; IC50 (RKO-AS45-1): 0.074 µM; IC50 (RL95-2): 3.72 µM; IC50 (RPMI-7951): 8.63 µM; IC50 (SCC-25): 9.86 µM; IC50 (SCC-4): > 10 µM; IC50 (SCaBER): > 10 µM; IC50 (SK-NEP-1): > 10 µM; IC50 (SKO-007): 8.64 µM; IC50 (SNU-423): > 10 µM; IC50 (SNU-5): > 10 µM; IC50 (ST486): 6.44 µM; IC50 (SW1116): > 10 µM; IC50 (SW1783): > 10 µM; IC50 (UM-UC-3): > 10 µM
